Reference: patent publication US6737383B1, “Herbicidal oxadiazolidines” (priority 1999, dated 2004)

Tests used:
purple nutsedge = assay: Test B pre/postemergence purple nutsedge; type: in vivo, Cyperus rotundus
How it was run: (§1)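 Test chemicals in a non-phytotoxic solvent mixture with surfactant were sprayed preemergence onto planted seeds and postemergence onto plants 2 to 18 cm tall (1- to 4-leaf stage). After twelve to sixteen days in a greenhouse, injury was visually rated against untreated controls from 0 (no effect) to 10 (complete control).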

sugar beet = assay: Test B pre/postemergence sugar beet; type: in vivo, Beta vulgaris
How it was run: as §1

duck salad = assay: Test B flood test duck salad; type: in vivo, Heteranthera limosa; settings: for Plant response rating, Ducksalad (0 to 10 scale, 0 is no effect, 10 is complete control): Rate 62 g/ha; for Plant response rating, Ducksalad (0 to 10 scale, 0 is no effect, 10 is complete control) / Ducksalad plant response rating (0 to 10 scale, 0 is no effect, 10 is complete control): visual evaluation after twelve to sixteen days; for Ducksalad plant response rating (0 to 10 scale, 0 is no effect, 10 is complete control): Rate 125 g/ha, under heading Pre-emergence
How it was run: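 Read-out is a visual response score from 0 (no effect) to 10 (complete control), assigned by comparison with untreated controls. Treatment was applied at the 2-leaf stage, and plants stayed in the greenhouse for twelve to sixteen days before scoring.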

rape = assay: Test B pre/postemergence rape; type: in vivo, Brassica napus
How it was run: as §1

[1] = Postemergence, Rate 250 g/ha, scale 0 to 10
[2] = Preemergence, Rate 62 g/ha, scale of 0 to 10 where 0 is no effect and 10 is complete control
[3] = Preemergence, Rate 125 g/ha, scale of 0 to 10 where 0 is no effect and 10 is complete control
[4] = Preemergence, Rate 250 g/ha, scale 0 to 10, 0 is no effect, 10 is complete control
[5] = Rate 62 g/ha, Postemergence, scale 0 to 10 (0 no effect, 10 complete control)
[6] = Rate 125 g/ha, Postemergence, scale 0 to 10, 0 is no effect, 10 is complete control
[7] = Preemergence, Rate 500 g/ha, scale 0 to 10, 0 is no effect, 10 is complete control
[8] = flood test species, Pre-emergence
[9] = Rate 250 g/ha, Pre-emergence (flood test species), scale 0 to 10, 0 is no effect, 10 is complete control
[10] = Rate 500 g/ha, Pre-emergence, flood test species, scale 0 to 10 (0 no effect, 10 complete control)
[11] = Postemergence, Rate 62 g/ha, scale 0 to 10, 0 is no effect, 10 is complete control
[12] = Postemergence, Rate 125 g/ha, scale of 0 to 10 where 0 is no effect and 10 is complete control
[13] = Postemergence, Rate 250 g/ha, scale of 0 to 10, 0 is no effect, 10 is complete control
[14] = Postemergence, Rate 500 g/ha, scale of 0 to 10 where 0 is no effect and 10 is complete control
[15] = Preemergence, Rate 62 g/ha, scale 0 to 10 (0 no effect, 10 complete control)
[16] = Preemergence, Rate 250 g/ha, scale 0 to 10 (0 no effect, 10 complete control)
[17] = Preemergence, Rate 500 g/ha, scale of 0 to 10 where 0 is no effect and 10 is complete control
[18] = Postemergence, Rate 125 g/ha, scale 0 to 10, 0 is no effect, 10 is complete control
[19] = Postemergence, Rate 250 g/ha, scale 0 to 10, 0 is no effect, 10 is complete control
[20] = Preemergence, Rate 250 g/ha, scale of 0 to 10 where 0 is no effect and 10 is complete control
[21] = Rate 62 g/ha, Postemergence, scale of 0 to 10 where 0 is no effect and 10 is complete control
[22] = Rate 500 g/ha, Postemergence, scale 0 to 10, 0 no effect, 10 complete control

CC(C)N(C(=O)n1oc(=O)n(C(C)C(=O)N(C)C)c1=O)c1ccccc1 (stereo not shown) [Compound 479]
2: Sugarbeets plant response rating (sugar beet; [4])
4: Sugarbeets plant response rating (sugar beet; [7]) | Rape plant response rating (rape; [7])
0: Nutsedge plant response rating (purple nutsedge; [1]) | Plant response rating, Nutsedge (purple nutsedge; [2]) | Plant response rating, Nutsedge (purple nutsedge; [3]) | Nutsedge plant response rating (purple nutsedge; [4]) | Nutsedge plant response rating (purple nutsedge; [5]) | Nutsedge plant response rating (purple nutsedge; [6]) | Sugarbeets plant response rating (sugar beet; [1]) | Plant response rating, Sugarbeets (sugar beet; [2]) | Plant response rating, Sugarbeets (sugar beet; [3]) | Sugarbeets plant response rating (sugar beet; [5]) | Sugarbeets plant response rating (sugar beet; [6]) | Plant response rating, Ducksalad (0 to 10 scale, 0 is no effect, 10 is complete control) (duck salad; [8]) | Ducksalad plant response rating (0 to 10 scale, 0 is no effect, 10 is complete control) (duck salad; flood test species) | Ducksalad plant response rating (duck salad; [9]) | Ducksalad plant response rating (duck salad; [10]) | Rape plant response rating (rape; [1]) | Plant response rating, Rape (rape; [2]) | Plant response rating, Rape (rape; [3]) | Rape plant response rating (rape; [5]) | Rape plant response rating (rape; [6])
1: Rape plant response rating (rape; [4])

CC(C)N(C(=O)n1oc(=O)n(CNC(=O)c2ccccc2)c1=O)c1ccccc1 [Compound 620]
0: Plant response rating, Nutsedge (purple nutsedge; [11]) | Plant response rating, Nutsedge (purple nutsedge; [12]) | Nutsedge plant response rating (purple nutsedge; [13]) | Plant response rating, Nutsedge (purple nutsedge; [14]) | Nutsedge plant response rating (purple nutsedge; [15]) | Nutsedge plant response rating (purple nutsedge; [3]) | Plant response rating, Nutsedge (purple nutsedge; [16]) | Plant response rating, Nutsedge (purple nutsedge; [17]) | Plant response rating, Sugarbeets (sugar beet; [11]) | Plant response rating, Sugarbeets (sugar beet; [12]) | Sugarbeets plant response rating (sugar beet; [13]) | Sugarbeets plant response rating (sugar beet; [15]) | Sugarbeets plant response rating (sugar beet; [3]) | Plant response rating, Sugarbeets (sugar beet; [16]) | Plant response rating, Sugarbeets (sugar beet; [17]) | Plant response rating, Ducksalad (0 to 10 scale, 0 is no effect, 10 is complete control) (duck salad; [8]) | Ducksalad plant response rating (0 to 10 scale, 0 is no effect, 10 is complete control) (duck salad; flood test species) | Ducksalad plant response rating (duck salad; [9]) | Ducksalad plant response rating (duck salad; Rate 500 g/ha, Pre-emergence section of Table B, 0 to 10 scale (0 no effect, 10 complete control)) | Plant response rating, Rape (rape; [11]) | Plant response rating, Rape (rape; [12]) | Rape plant response rating (rape; [13]) | Plant response rating, Rape (rape; [14]) | Rape plant response rating (rape; [15]) | Rape plant response rating (rape; [3]) | Plant response rating, Rape (rape; [16]) | Plant response rating, Rape (rape; [17])

CC(C)N(C(=O)n1oc(=O)n(N2C(C)CCCC2C)c1=O)c1ccc(F)cc1 (stereo not shown) [Compound 382]
0: Plant response rating, Nutsedge (purple nutsedge; [18]) | Plant response rating, Nutsedge (purple nutsedge; [19]) | Plant response rating, Nutsedge (purple nutsedge; [15]) | Nutsedge plant response rating (0 to 10 scale) (purple nutsedge; Preemergence, Rate 125 g/ha) | Nutsedge plant response rating (purple nutsedge; [20]) | Nutsedge plant response rating (purple nutsedge; [17]) | Nutsedge plant response rating (purple nutsedge; [21]) | Plant response rating, Nutsedge (purple nutsedge; [22]) | Plant response rating, Sugarbeets (sugar beet; [18]) | Plant response rating, Sugarbeets (sugar beet; [19]) | Plant response rating, Sugarbeets (sugar beet; [15]) | Sugarbeets plant response rating (0 to 10 scale) (sugar beet; Preemergence, Rate 125 g/ha) | Sugarbeets plant response rating (sugar beet; [20]) | Sugarbeets plant response rating (sugar beet; [17]) | Sugarbeets plant response rating (sugar beet; [21]) | Plant response rating, Sugarbeets (sugar beet; [22]) | Plant response rating, Ducksalad (0 to 10 scale, 0 is no effect, 10 is complete control) (duck salad; [8]) | Ducksalad plant response rating (0 to 10 scale, 0 is no effect, 10 is complete control) (duck salad; flood test species) | Ducksalad plant response rating (duck salad; Rate 250 g/ha, Pre-emergence, flood-test species, scale 0 to 10, 0 is no effect, 10 is complete control) | Ducksalad plant response rating (duck salad; [10]) | Plant response rating, Rape (rape; [18]) | Plant response rating, Rape (rape; [19]) | Plant response rating, Rape (rape; [15]) | Rape plant response rating (0 to 10 scale) (rape; Preemergence, Rate 125 g/ha) | Rape plant response rating (rape; [20]) | Rape plant response rating (rape; [17]) | Rape plant response rating (rape; [21]) | Plant response rating, Rape (rape; [22])
